Laboratory results as given in patent publication US20080050764A1, “Method and Apparatus for Measuring Enviromental Allergen” (Japan Science and Technology Agency, priority 2003, published 2008).
“Also recorded” adds a separate entry of the source. * marks the point of attachment. AMC = Cc1cc(=O)oc2cc(N*)ccc12; Boc = CC(C)(C)OC(=O)*

Assays:
[1] = system: Cedar Pollen (Cedar Pollen-Cj Japanese Cedar); assay: Measurement of cedar pollen with protease substrates, fluorescence (Example 7); type: biochemical; conditions: substrate 10 mM in DMSO, 37° C. 15 minutes, excitation 355 nm
Description: • Cedar Pollen (Cedar Pollen-Cj Japanese Cedar) (produced by LSL) • Leu-MCA and Boc-Val-Leu-Lys-MCA as protease substrates (both of them were produced by PEPTIDE INSTITUTE INC)
Cedar pollen was suspended in phosphate buffer to a concentration of 1 mg/ml and the suspension was diluted with phosphate buffer as appropriate. Each of the dilutions in an amount of 45 μL was mixed with 5 μL of the substrate dissolved in DMSO to a concentration of 10 mM, and the resulting mixture was incubated at 37° C. for 15 minutes. Using a plate reader, excitation was carried out at a wavelength of 355 nm, and fluorescence intensity at 460 nm was measured.

[2] = system: Mite Extract Df (Mite dermatophagoides farinae); assay: Protease substrate cleavage by mite extract, fluorescence (Example 9); type: biochemical; conditions: substrate 10 mM in DMSO, room temperature overnight, excitation 355 nm
Description: • Mite Extract Df (Mite dermatophagoides farinae) (obtained by extracting mites with phosphate buffer and freeze-drying the soluble fragment) (produced by LSL) • Protease Substrates (Met-MCA, Boc-Gln-Ala-Arg-MCA, Boc-Val-Leu-Lys-MCA, Bz-Arg-MCA, Glt-Ala-Ala-Phe-MCA (Glt means glutaryl) (All of them were produced by PEPTIDE INSTITUTE INC)
In phosphate buffer or water, mites were suspended to a concentration of 1 mg/ml, and the suspension was diluted with phosphate buffer as appropriate. Each of the dilutions in an amount of 50 μL was mixed with 5 μL of the substrate dissolved in DMSO to a concentration of 10 mM, and the resulting mixture was incubated at room temperature overnight. Using a plate reader, excitation was carried out at a wavelength of 355 nm, and fluorescence intensity at 460 nm was measured.

Cedar Pollen Extract = assay: Quantification of cedar pollen extract with protease substrates, fluorescence (Example 8); type: biochemical, Japanese Cedar; conditions: substrate 10 mM in DMSO, 37° C. 15 minutes, excitation 355 nm
Description: • Cedar Pollen Extract (Cedar Pollen Extrace-CJ) (produced by LSL) • Leu-MCA and Boc-Val-Leu-Lys-MCA as protease substrates (both of them were produced by PEPTIDE INSTITUTE INC)
The cedar pollen extract was the centrifugation supernatant obtained by stirring cedar pollen in 0.125 M NaHCO3 (pH8) for 16 hours, and lightly homogenizing the mixture, followed by centrifugation. The extract was suspended in 5 mM borate buffer (pH8.0) containing 0.9% NaCl to a concentration of 666 μg/ml, and the resulting mixture was diluted with phosphate buffer as appropriate. Each of the samples in an amount of 45 μL was mixed with 5 μL of the substrate dissolved in DMSO to a concentration of 10 mM, and the resulting mixture was incubated at 37° C. for 15 minutes. Using a plate reader, excitation was carried out at a wavelength of 355 nm, and fluorescence intensity at 460 nm was measured.

Row | Compound | reaction of substrate with cedar pollen (fluorescence intensity at 460 nm) [1] | cleavage of substrate by mite antigen (fluorescence intensity at 460 nm) [2] | reaction of substrate with cedar pollen extract (fluorescence intensity at 460 nm) (Cedar Pollen Extract)
1 | Cl.NC(N)=NCCCC(NC(=O)c1ccccc1)C(=O)Nc1ccc([N+](=O)[O-])cc1 (racemic) [Bz-DL-Arg-pNA.HCl] | reacts |  | 
2 | Cc1cc(=O)oc2cc(NC(=O)[C@H](CCCNC(=N)N)NC(=O)c3ccccc3)ccc12 [Bz-Arg-MCA] |  | not substantially cleaved | 
3 | Cc1cc(=O)oc2cc(NC(=O)C(N)CC(C)C)ccc12 (stereo not drawn) [Leu-MCA] | reacts |  | 
4 | CSCCC(N)C(=O)Nc1ccc2c(C)cc(=O)oc2c1 (stereo not drawn) [Met-MCA] |  | effectively measured | 
5 | Boc-Gln-Ala-Arg-{AMC} |  | effectively measured | 
6 | Boc-Val-Leu-Lys-{AMC} | fluorescence was not dependent on the amount of cedar pollen; also recorded: does not react | effectively measured; also recorded: reacts | fluorescence was not dependent on the amount of cedar pollen
7 | Glt-Ala-Ala-Phe-MCA |  | not substantially cleaved | 
